Measured values reported in US8426437B2, “Pyrroloquinoline derivatives and their use as protein kinases inhibitors” (Pierre Fabre Medicament, priority 2005, dated 2013).

target: T1, RET (Homo sapiens, UniProt P07949); test: Inhibition of RET kinase activity, recombinant RET method (Kinase-Glo); type: biochemical; conditions: RET 2 μg/ml, poly-EY4 substrate, 20 μM ATP, two hours at 30° C.
T1 construct: purchased Upstate 14-570MG
Method: The inhibition of the kinase activity of the compounds of the invention is assessed by measuring their IC50 on RET.
where: • Y is the value of the luminescence • X is the logarithm of the concentration of the compound • Bottom is the minimum Y value • Top is the maximum Y value • LogIC50 is the value of X when Y is 50% from Top—Bottom.
The quantity of RET required is 2 μg/ml.
The following buffer is used for dilution of RET: 20 mM MOPS/NaOH pH7.0, 1 mM EDTA, 5% glycerol, 0.01% Brij35 (Sigma B4184), 0.1% 2-mercaptoethanol, 1 mg/ml BSA (Sigma A3059-10G).
The dilution of the compounds of the invention is distributed so as to obtain a scale of final concentrations between 10 nM and 30 μM.
After incubation of the reaction mixture for two hours at 30° C., the level of ATP that remains is assayed using the Kinase-Glo Luminescent Kinase Assay (Promega #V6712) according to the conditions recommended by the supplier. The luminescence induced is read in a plate reader (Envision-Perkin Elmer).

T1 sequence (P07949 29-1114): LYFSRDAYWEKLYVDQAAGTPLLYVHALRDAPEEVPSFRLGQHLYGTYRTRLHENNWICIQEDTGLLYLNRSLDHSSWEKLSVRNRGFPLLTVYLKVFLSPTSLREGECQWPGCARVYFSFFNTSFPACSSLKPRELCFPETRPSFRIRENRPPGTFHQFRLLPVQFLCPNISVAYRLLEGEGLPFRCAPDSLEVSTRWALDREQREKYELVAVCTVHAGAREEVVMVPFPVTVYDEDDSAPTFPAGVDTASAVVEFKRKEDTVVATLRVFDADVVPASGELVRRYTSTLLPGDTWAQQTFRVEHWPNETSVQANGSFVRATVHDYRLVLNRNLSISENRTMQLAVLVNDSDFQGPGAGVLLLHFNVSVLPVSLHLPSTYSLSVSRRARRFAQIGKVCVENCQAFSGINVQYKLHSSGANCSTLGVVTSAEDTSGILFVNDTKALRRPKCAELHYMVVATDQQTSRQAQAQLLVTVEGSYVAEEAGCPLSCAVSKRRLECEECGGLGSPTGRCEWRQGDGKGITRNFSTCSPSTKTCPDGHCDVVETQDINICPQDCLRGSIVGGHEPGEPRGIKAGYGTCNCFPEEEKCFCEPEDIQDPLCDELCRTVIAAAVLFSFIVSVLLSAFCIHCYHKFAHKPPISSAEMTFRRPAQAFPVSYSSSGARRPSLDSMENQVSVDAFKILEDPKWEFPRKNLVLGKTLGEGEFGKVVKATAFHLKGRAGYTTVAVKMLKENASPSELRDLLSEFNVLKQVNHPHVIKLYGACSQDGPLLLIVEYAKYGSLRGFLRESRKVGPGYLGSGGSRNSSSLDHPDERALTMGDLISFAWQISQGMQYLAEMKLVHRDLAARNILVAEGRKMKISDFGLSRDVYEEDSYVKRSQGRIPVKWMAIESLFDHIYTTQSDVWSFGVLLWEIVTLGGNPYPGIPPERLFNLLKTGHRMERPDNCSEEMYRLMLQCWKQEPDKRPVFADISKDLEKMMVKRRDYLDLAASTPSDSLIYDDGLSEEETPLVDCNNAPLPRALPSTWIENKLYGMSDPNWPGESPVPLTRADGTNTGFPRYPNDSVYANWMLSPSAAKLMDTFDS

IC50 [nM] | SMILES
100 to 1000 | CCOC(=O)c1c[nH]c2c(=O)[nH]c3ccc(S(=O)(=O)N4CCOCC4)cc3c12 [Compound 28, 8-(Morpholine-4-sulfonyl)-4-oxo-4,5-dihydro-3H-pyrrolo[2,3-c]quinoline-1-ethyl carboxylate]
100 to 1000 | CCCOC(=O)c1c[nH]c2c(=O)[nH]c3ccc(S(=O)(=O)N(C)CCN(CC)CC)cc3c12 [Compound 138, 8-[(2-Diethylamino-ethyl)-methyl-sulfamoyl]-4-oxo-4,5-dihydro-3H-pyrrolo[2,3-c]quinoline-1-propyl carboxylate]
100 to 1000 | CCCOC(=O)c1c[nH]c2c(=O)[nH]c3ccc(-c4cccc(S(C)(=O)=O)c4)cc3c12 [Compound 254, 8-(3-Methanesulfonyl-phenyl)-4-oxo-4,5-dihydro-3H-pyrrolo[2,3-c]quinoline-1-propyl carboxylate]
1000 to 10000 | CCOC(=O)c1c[nH]c2c(=O)[nH]c3ccc(-c4csc(-c5ccccc5)n4)cc3c12 [Compound 279, 4-Oxo-8-(2-phenyl-thiazol-4-yl)-4,5-dihydro-3H-pyrrolo[2,3-c]quinoline-1-ethyl carboxylate]
100 to 1000 | CCOC(=O)c1c[nH]c2c(=O)[nH]c3ccc(C#CCN(C)C)cc3c12 [Compound 203, 8-(3-Dimethylamino-prop-1-ynyl)-4-oxo-4,5-dihydro-3H-pyrrolo[2,3-c]quinoline-1-ethyl carboxylate]
1000 to 10000 | CCOC(=O)c1c[nH]c2c(=O)[nH]c3ccc(NS(=O)(=O)c4ccc(NC(C)=O)cc4)cc3c12 [Compound 52, 8-(4-Acetylamino-benzenesulfonylamino)-4-oxo-4,5-dihydro-3H-pyrrolo[2,3-c]quinoline-1-ethyl carboxylate]
100 to 1000 | CCOC(=O)c1c[nH]c2c(=O)[nH]c3ccc(S(=O)(=O)Nc4cccc(Cl)c4)cc3c12 [Compound 10, 8-(3-Chlorophenylsulfamoyl)-4-oxo-4,5-dihydro-3H-pyrrolo[2,3-c]quinoline-1-ethyl carboxylate]
100 to 1000 | CCCOC(=O)c1c[nH]c2c(=O)[nH]c3ccc(I)cc3c12 [Compound 210, 8-Iodo-4-oxo-4,5-dihydro-3H-pyrrolo[2,3-c]quinoline-1-propyl carboxylate]
1000 to 10000 | CCOC(=O)c1c[nH]c2c(=O)[nH]c3ccc(N(C)C)cc3c12 [Compound 62, 8-Dimethylamino-4-oxo-4,5-dihydro-3H-pyrrolo[2,3-c]quinoline-1-ethyl carboxylate]
100 to 1000 | CCCOC(=O)c1c[nH]c2c(=O)[nH]c3ccc(S(=O)(=O)N(C[C@H]4CCCN4C)C4CC4)cc3c12 [Compound 146, (R)-8-[Cyclopropyl-(1-methyl-pyrrolidin-2-ylmethyl)-sulfamoyl]-4-oxo-4,5-dihydro-3H-pyrrolo[2,3-c]quinoline-1-propyl carboxylate]
100 to 1000 | CN1CCC(NS(=O)(=O)c2ccc3[nH]c(=O)c4[nH]cc(C(=O)OC5CCCC5)c4c3c2)CC1 [Compound 119, 8-(q-Methyl-piperidin-4-ylsulfamoyl)-4-oxo-4,5-dihydro-3H-pyrrolo[2,3-c]quinoline-1-cyclopentyl carboxylate]
100 to 1000 | CCOC(=O)c1c[nH]c2c(=O)[nH]c3ccc(S(=O)(=O)Cc4c(Cl)cccc4Cl)cc3c12 [Compound 36, 8-(2,6-Dichlorophenylmethanesulfonyl)-4-oxo-4,5-dihydro-3H-pyrrolo[2,3-c]quinoline-1-ethyl carboxylate]
100 to 1000 | CCOC(=O)c1c[nH]c2c(=O)[nH]c3ccc(-c4ccn(C)n4)cc3c12 [Compound 283, 8-(1-Methyl-1H-pyrazol-3-yl)-4-oxo-4,5-dihydro-3H-pyrrolo[2,3-c]quinoline-1-ethyl carboxylate]
1000 to 10000 | CCOC(=O)c1c[nH]c2c(=O)[nH]c3ccc(C(=O)CN4CCOCC4)cc3c12 [Compound 218, 8-(2-Morpholin-4-yl-acetyl)-4-oxo-4,5-dihydro-3H-pyrrolo[2,3-c]quinoline-ethyl carboxylate]
100 to 1000 | CCOC(=O)c1c[nH]c2c(=O)[nH]c3ccc(NS(=O)(=O)c4ccc(Cl)cc4)cc3c12 [Compound 40, 8-(4-Chloro-benzenesulfonylamino)-4-oxo-4,5-dihydro-3H-pyrrolo[2,3-c]quinoline-1-ethyl carboxylate]
100 to 1000 | CCOC(=O)c1c[nH]c2c(=O)[nH]c3ccc(C#CCN(C)CCC#N)cc3c12 [Compound 206, 8-{3-[(2-Cyano-ethylmethyl-amino]-prop-1-ynyl}-4-oxo-4,5-dihydro-3H-pyrrolo[2,3-c]quinoline-1-ethyl carboxylate]

IC50 [nM] | SMILES
1000 to 10000 | CCOC(=O)c1c[nH]c2c(=O)[nH]c3ccc(-c4ccc(OC)cc4)cc3c12 [Compound 246, 8-(4-Methoxy-phenyl)-4-oxo-4,5-dihydro-3H-pyrrolo[2,3-c]quinoline-1-ethyl carboxylate]
1000 to 10000 | CCOC(=O)/C=C/c1ccc2[nH]c(=O)c3[nH]cc(C(=O)OCC)c3c2c1 [Compound 65, 8-(2-Ethoxycarbonyl-vinyl)-4-oxo-4,5-dihydro-3H-pyrrolo[2,3-c]quinoline-1-ethyl carboxylate]
10000 to 100000 | CCN(CC)CCOC(=O)c1c[nH]c2c(=O)[nH]c3ccc(F)cc3c12 [Compound 100, 8-Fluoro-4-oxo-4,5-dihydro-3H-pyrrolo[2,3-c]quinoline-1-carboxylate of 2-diethylaminoethyl]
1000 to 10000 | CCOC(=O)c1c[nH]c2c(=O)[nH]c3ccc(C(=O)c4ccccc4)cc3c12 [Compound 102, 8-Benzoyl-4-oxo-4,5-dihydro-3H-pyrrolo[2,3-c]quinoline-1-ethyl carboxylate]
1000 to 10000 | CCOC(=O)c1c[nH]c2c(=O)[nH]c3cc(Cl)ccc3c12 [Compound 216, 7-Chloro-4-oxo-4,5-dihydro-3H-pyrrolo[2,3-c]quinoline-1-ethyl carboxylate]
1000 to 10000 | CCOC(=O)c1c[nH]c2c(=O)[nH]c3ccc(-c4cccnc4)cc3c12 [Compound 258, 4-Oxo-8-pyridin-3-yl-4,5-dihydro-3H-pyrrolo[2,3-c]quinoline-1-ethyl carboxylate]
100 to 1000 | CCCOC(=O)c1c[nH]c2c(=O)[nH]c3ccc(S(=O)(=O)N(C)CC#N)cc3c12 [Compound 128, 8-(Cyanomethyl-methyl-sulfamoyl)-4-oxo-4,5-dihydro-3H-pyrrolo[2,3-c]quinoline-1-propyl carboxylate]
100 to 1000 | CCCOC(=O)c1c[nH]c2c(=O)[nH]c3ccc(S(=O)(=O)N(C)C4CCSCC4)cc3c12 [Compound 131, 8-[Methyl-(tetrahydro-thiopyran-4-yl)-sulfamoyl]-4-oxo-4,5-dihydro-3H-pyrrolo[2,3-c]quinoline-1-propyl carboxylate]
< 100 | CCOC(=O)c1c[nH]c2c(=O)[nH]c3ccc(S(=O)(=O)Nc4ccc(O)cc4)cc3c12 [Compound 98, 8-(4-Hydroxy-phenylsulfamoyl)-4-oxo-4,5-dihydro-3H-pyrrolo[2,3-c]quinoline-1-ethyl carboxylate]
1000 to 10000 | COC(=O)c1c[nH]c2c(=O)[nH]c3ccc(S(=O)(=O)NN4CCN(C)CC4)cc3c12 [Compound 193, 8-(4-Methyl-piperazin-1-ylsulfamoyl)-4-oxo-4,5-dihydro-3H-pyrrolo[2,3-c]quinoline-1-methyl carboxylate]
< 100 | CCOC(=O)c1c[nH]c2c(=O)[nH]c3ccc(S(=O)(=O)Nc4ccc(F)c(F)c4)cc3c12 [Compound 18, 8-(3,4-Difluorophenylsulfamoyl)-4-oxo-4,5-dihydro-3H-pyrrolo[2,3-c]quinoline-1-ethyl carboxylate]
100 to 1000 | CCOC(=O)c1c[nH]c2c(=O)[nH]c3ccc(C#CCN4CCOCC4)cc3c12 [Compound 205, 8-(3-Morpholin-4-yl-prop-1-ynyl)-4-oxo-4,5-dihydro-3H-pyrrolo[2,3-c]quinoline-1-ethyl carboxylate]
10000 to 100000 | CC(=O)c1c[nH]c2c(=O)[nH]c3ccccc3c12 [Compound 77, 1-Acetyl-3,5-dihydro-pyrrolo[2,3-c]quinolin-4-one]
100 to 1000 | CCOC(=O)c1c[nH]c2c(=O)[nH]c3ccc(-c4cccc(NC(C)=O)c4)cc3c12 [Compound 236, 8-(3-Acetylaminophenyl)-4-oxo-4,5-dihydro-3H-pyrrolo[2,3-c]quinoline-1-ethyl carboxylate]
100 to 1000 | CCCOC(=O)c1c[nH]c2c(=O)[nH]c3ccc(S(=O)(=O)N(C)CCN4CCCC4)cc3c12 [Compound 137, 8-[Methyl-(2-pyrrolidin-1-yl-ethyl)-sulfamoyl]-4-oxo-4,5-dihydro-3H-pyrrolo[2,3-c]quinoline-1-propyl carboxylate]

SMILES | IC50 [nM]
CCOC(=O)c1c[nH]c2c(=O)[nH]c3ccc(-c4ccccc4NC(=O)OC(C)(C)C)cc3c12 [Compound 230, 8-(2-tert-Butoxycarbonylaminophenyl)-4-oxo-4,5-dihydro-3H-pyrrolo[2,3-c]quinoline-1-ethyl carboxylate] | 10000 to 100000
CCOC(=O)c1c[nH]c2c(=O)[nH]c3ccc(-c4cccc(NC(=O)OC(C)(C)C)c4)cc3c12 [Compound 233, 8-(3-tert-Butoxycarbonylaminophenyl)-4-oxo-4,5-dihydro-3H-pyrrolo[2,3-c]quinoline-1-ethyl carboxylate] | 1000 to 10000
CCOC(=O)c1c[nH]c2c(=O)[nH]c3ccc(-c4ccc5c(ccn5C(=O)OC(C)(C)C)c4)cc3c12 [Compound 253, 8-(1-tert-Butoxycarbonyl-1H-indol-5-yl)-4-oxo-4,5-dihydro-3H-pyrrolo[2,3-c]quinoline-1-ethyl carboxylate] | 1000 to 10000
